In patent publication US20040018941A1, “Fused-benzene derivatives of thiouracil, herbicidal and desiccant compositions contaning them” (ISHIHARA SANGYO KAISHA, LTD., priority 2002, published 2004):

Key:
Format in all cases: in vivo
Conditions in all cases: rating 0-100 (0 no damage, 100 complete death), 14 days after application
[1] = system: redroot pigweed (Amaranthus retroflexus, AMARE); assay: Pre-emerge herbicidal activity, greenhouse screen, AMARE
Excerpt: (§1) A standard greenhouse herbicide activity screening system was used to evaluate the herbicidal efficacy and crop safety of these test compounds. Seven broadleaf weed species including redroot pigweed (Amaranthus retroflexus, AMARE), velvetleaf (Abutilon theophrasti, ABUTH), sicklepod (Cassia obtusifolia, CASOB), ivyleaf morningglory (Ipomoea hederacea, IPOHE), lambsquarters (Chenopodium album, CHEAL), common ragweed (Ambrosia artemisiifolia L., AMBEL), and cocklebur (Xanthium strumarium, XANST) were used as test species. Four grass weed species including green foxtail (Setaria viridis, SETVI), barnyardgrass (Echinochloa crus-galli, ECHCG), johnsongrass (Sorghum halepense, SORHA), and large crabgrass (Digitaria sanguinalis, DIGSA) were also used. In addition, three crop species, field corn (Zea mays L., var. Dekalb 527, CORN), soybean (Glycine max L., var. Pella 86, SOY), and upland rice (Oryza sp., var. Tebonnet, RICE) were included.
(§2) All plants were grown in 10 cm square plastic pots which were filled with a sandy loam soil mix. For pre-emerge tests, seeds were planted one day prior to application of the test compounds. For post-emerge tests, seeds were planted 8-21 days prior to the test to allow emergence and good foliage development prior to application of the test substances. At the time of the post-emerge application, plants of all species were usually at the 2-3 leaf stage of development.
(§3) All test compounds were dissolved in acetone and applied to the test units in a volume of 187 l/ha. Test materials were applied at rates ranging from 15 g ai/ha to 1000 g ai/ha using a track sprayer equipped with a TJ8001 E even flow flat fan spray nozzle. Plants were arranged on a shelf so that the top of the canopy (post-emerge) or top of the soil surface (pre-emerge) was 40-45 cm below the nozzle. Pressurized air was used to force the test solution through the nozzle as it was mechanically advanced over the top of all test plants/pots. This application simulates a typical commercial field herbicide application.
(§4) In the post-emerge test, a commercial non-ionic surfactant was also included (0.25% v/v) to enhance wetting of the leaf surfaces of target plants. Immediately after application, test units of the pre-emerge applications were watered at the soil surface to incorporate the test materials.
(§5) At 14 days after application of the test materials, phytotoxicity ratings were recorded. A rating scale of 0-100 was used as previously described in Research Methods in Weed Science, 2nd edition, B. Truelove, Ed., Southern Weed Science Society, Auburn University, Auburn, Ala., 1977. Briefly, “0” corresponds to no damage and “100” corresponds to complete death of all plants in the test unit. This scale was used both to determine efficacy against weed species and damage to crop species. Herbicide activity data for various compounds of this invention, which are shown by compound No. in Tables 1-7, are shown in Tables 8 and 9.

[2] = system: velvetleaf (Abutilon theophrasti, ABUTH); assay: Pre-emerge herbicidal activity, greenhouse screen, ABUTH
Excerpt: as §1, §2, §3, §4, §5

[3] = system: sicklepod (Cassia obtusifolia, CASOB); assay: Pre-emerge herbicidal activity, greenhouse screen, CASOB
Excerpt: as §1, §2, §3, §4, §5

[4] = system: ivyleaf morningglory (Ipomoea hederacea, IPOHE); assay: Pre-emerge herbicidal activity, greenhouse screen, IPOHE
Excerpt: as §1, §2, §3, §4, §5

[5] = system: lambsquarters (Chenopodium album, CHEAL); assay: Pre-emerge herbicidal activity, greenhouse screen, CHEAL
Excerpt: as §1, §2, §3, §4, §5

[6] = system: common ragweed (Ambrosia artemisiifolia L., AMBEL); assay: Pre-emerge herbicidal activity, greenhouse screen, AMBEL
Excerpt: as §1, §2, §3, §4, §5

[7] = system: green foxtail (Setaria viridis, SETVI); assay: Pre-emerge herbicidal activity, greenhouse screen, SETVI
Excerpt: as §1, §2, §3, §4, §5

[8] = system: barnyardgrass (Echinochloa crus-galli, ECHCG); assay: Pre-emerge herbicidal activity, greenhouse screen, ECHCG
Excerpt: as §1, §2, §3, §4, §5

[9] = system: johnsongrass (Sorghum halepense, SORHA); assay: Pre-emerge herbicidal activity, greenhouse screen, SORHA
Excerpt: as §1, §2, §3, §4, §5

[10] = system: large crabgrass (Digitaria sanguinalis, DIGSA); assay: Pre-emerge herbicidal activity, greenhouse screen, DIGSA
Excerpt: as §1, §2, §3, §4, §5

[11] = system: field corn (Zea mays L., var. Dekalb 527, CORN); assay: Pre-emerge crop damage, greenhouse screen, CORN
Excerpt: as §1, §2, §3, §4, §5

[12] = system: soybean (Glycine max L., var. Pella 86, SOY); assay: Pre-emerge crop damage, greenhouse screen, SOY
Excerpt: as §1, §2, §3, §4, §5

[13] = system: upland rice (Oryza sp., var. Tebonnet, RICE); assay: Pre-emerge crop damage, greenhouse screen, RICE
Excerpt: as §1, §2, §3, §4, §5

[14] = system: redroot pigweed (Amaranthus retroflexus, AMARE); assay: Post-emerge herbicidal activity, greenhouse screen, AMARE
Excerpt: as §1, §2, §3, §4, §5

[15] = system: velvetleaf (Abutilon theophrasti, ABUTH); assay: Post-emerge herbicidal activity, greenhouse screen, ABUTH
Excerpt: as §1, §2, §3, §4, §5

[16] = system: sicklepod (Cassia obtusifolia, CASOB); assay: Post-emerge herbicidal activity, greenhouse screen, CASOB
Excerpt: as §1, §2, §3, §4, §5

[17] = system: ivyleaf morningglory (Ipomoea hederacea, IPOHE); assay: Post-emerge herbicidal activity, greenhouse screen, IPOHE
Excerpt: as §1, §2, §3, §4, §5

[18] = system: lambsquarters (Chenopodium album, CHEAL); assay: Post-emerge herbicidal activity, greenhouse screen, CHEAL
Excerpt: as §1, §2, §3, §4, §5

[19] = system: common ragweed (Ambrosia artemisiifolia L., AMBEL); assay: Post-emerge herbicidal activity, greenhouse screen, AMBEL
Excerpt: as §1, §2, §3, §4, §5

[20] = system: green foxtail (Setaria viridis, SETVI); assay: Post-emerge herbicidal activity, greenhouse screen, SETVI
Excerpt: as §1, §2, §3, §4, §5

[21] = system: barnyardgrass (Echinochloa crus-galli, ECHCG); assay: Post-emerge herbicidal activity, greenhouse screen, ECHCG
Excerpt: as §1, §2, §3, §4, §5

[22] = system: johnsongrass (Sorghum halepense, SORHA); assay: Post-emerge herbicidal activity, greenhouse screen, SORHA
Excerpt: as §1, §2, §3, §4, §5

[23] = system: large crabgrass (Digitaria sanguinalis, DIGSA); assay: Post-emerge herbicidal activity, greenhouse screen, DIGSA
Excerpt: as §1, §2, §3, §4, §5

[24] = system: field corn (Zea mays L., var. Dekalb 527, CORN); assay: Post-emerge crop damage, greenhouse screen, CORN
Excerpt: as §1, §2, §3, §4, §5

[25] = system: soybean (Glycine max L., var. Pella 86, SOY); assay: Post-emerge crop damage, greenhouse screen, SOY
Excerpt: as §1, §2, §3, §4, §5

[26] = system: upland rice (Oryza sp., var. Tebonnet, RICE); assay: Post-emerge crop damage, greenhouse screen, RICE
Excerpt: as §1, §2, §3, §4, §5

## Cn1c(C(F)(F)F)cc(=O)n(-c2ccc(Cl)c3nc(C(C)(C)C)oc23)c1=S [Compound 1-4]
[1]; 63 g ai/ha
  Pre-emerge Herbicidal Activity AMARE: 100
[1]; 250 g ai/ha
  Pre-emerge Herbicidal Activity AMARE: 100
[2]; 63 g ai/ha
  Pre-emerge Herbicidal Activity ABUTH: 100
[2]; 250 g ai/ha
  Pre-emerge Herbicidal Activity ABUTH: 100
[3]; 63 g ai/ha
  Pre-emerge Herbicidal Activity CASOB: 70
[3]; 250 g ai/ha
  Pre-emerge Herbicidal Activity CASOB: 100
[4]; 63 g ai/ha
  Pre-emerge Herbicidal Activity IPOHE: 99
[4]; 250 g ai/ha
  Pre-emerge Herbicidal Activity IPOHE: 100
[5]; 63 g ai/ha
  Pre-emerge Herbicidal Activity CHEAL: 100
[5]; 250 g ai/ha
  Pre-emerge Herbicidal Activity CHEAL: 100
[6]; 63 g ai/ha
  Pre-emerge Herbicidal Activity AMBEL: 80
[6]; 250 g ai/ha
  Pre-emerge Herbicidal Activity AMBEL: 100
[7]; 63 g ai/ha
  Pre-emerge Herbicidal Activity SETVI: 100
[7]; 250 g ai/ha
  Pre-emerge Herbicidal Activity SETVI: 100
[8]; 63 g ai/ha
  Pre-emerge Herbicidal Activity ECHCG: 100
[8]; 250 g ai/ha
  Pre-emerge Herbicidal Activity ECHCG: 100
[9]; 63 g ai/ha
  Pre-emerge Herbicidal Activity SORHA: 100
[9]; 250 g ai/ha
  Pre-emerge Herbicidal Activity SORHA: 100
[10]; 63 g ai/ha
  Pre-emerge Herbicidal Activity DIGSA: 100
[10]; 250 g ai/ha
  Pre-emerge Herbicidal Activity DIGSA: 100
[11]; 63 g ai/ha
  Pre-emerge Herbicidal Activity CORN (crop damage): 15
[11]; 250 g ai/ha
  Pre-emerge Herbicidal Activity CORN (crop damage): 85
[12]; 63 g ai/ha
  Pre-emerge Herbicidal Activity SOY (crop damage): 10
[12]; 250 g ai/ha
  Pre-emerge Herbicidal Activity SOY (crop damage): 80
[13]; 63 g ai/ha
  Pre-emerge Herbicidal Activity RICE (crop damage): 60
[13]; 250 g ai/ha
  Pre-emerge Herbicidal Activity RICE (crop damage): 90
[14]; 63 g ai/ha
  Post-emerge Herbicidal Activity AMARE: 100
[14]; 250 g ai/ha
  Post-emerge Herbicidal Activity AMARE: 100
[15]; 63 g ai/ha
  Post-emerge Herbicidal Activity ABUTH: 100
[15]; 250 g ai/ha
  Post-emerge Herbicidal Activity ABUTH: 100
[16]; 63 g ai/ha
  Post-emerge Herbicidal Activity CASOB: 60
[16]; 250 g ai/ha
  Post-emerge Herbicidal Activity CASOB: 99
[17]; 63 g ai/ha
  Post-emerge Herbicidal Activity IPOHE: 95
[17]; 250 g ai/ha
  Post-emerge Herbicidal Activity IPOHE: 100
[18]; 63 g ai/ha
  Post-emerge Herbicidal Activity CHEAL: 100
[18]; 250 g ai/ha
  Post-emerge Herbicidal Activity CHEAL: 100
[19]; 63 g ai/ha
  Post-emerge Herbicidal Activity AMBEL: 90
[19]; 250 g ai/ha
  Post-emerge Herbicidal Activity AMBEL: 90
[20]; 63 g ai/ha
  Post-emerge Herbicidal Activity SETVI: 50
[20]; 250 g ai/ha
  Post-emerge Herbicidal Activity SETVI: 100
[21]; 63 g ai/ha
  Post-emerge Herbicidal Activity ECHCG: 90
[21]; 250 g ai/ha
  Post-emerge Herbicidal Activity ECHCG: 100
[22]; 63 g ai/ha
  Post-emerge Herbicidal Activity SORHA: 20
[22]; 250 g ai/ha
  Post-emerge Herbicidal Activity SORHA: 30
[23]; 63 g ai/ha
  Post-emerge Herbicidal Activity DIGSA: 0
[23]; 250 g ai/ha
  Post-emerge Herbicidal Activity DIGSA: 20
[24]; 63 g ai/ha
  Post-emerge Herbicidal Activity CORN (crop damage): 0
[24]; 250 g ai/ha
  Post-emerge Herbicidal Activity CORN (crop damage): 30
[25]; 63 g ai/ha
  Post-emerge Herbicidal Activity SOY (crop damage): 50
[25]; 250 g ai/ha
  Post-emerge Herbicidal Activity SOY (crop damage): 50
[26]; 63 g ai/ha
  Post-emerge Herbicidal Activity RICE (crop damage): 60
[26]; 250 g ai/ha
  Post-emerge Herbicidal Activity RICE (crop damage): 65
